What was measured:
[1] = MRT (0 to t) in Sprague-Dawley rat at 1 mg/kg, iv measured after 24 hrs; type: ADME, organism-based; conditions: in vivo
[2] = AUC (0 to t) in CD-1 mouse at 5 mg/kg, po measured after 24 hrs; type: ADME, organism-based; conditions: in vivo
in vivo [3] = conditions: Sprague-Dawley, rat, iv, 1 mg/kg
in vivo [4] = conditions: CD-1, mouse, po, 5 mg/kg
in vitro [5] = conditions: human, Caco-2
in vivo [6] = conditions: CD-1, mouse, po, 5 mg/kg; remark: listed apart in the source
in vivo [7] = conditions: Sprague-Dawley, rat, po, 5 mg/kg
in vivo [8] = conditions: CD-1, mouse, iv, 1 mg/kg
[9] = Drug concentration in mouse plasma assessed as free fraction administered for 21 days and measured after 8 hrs post dose; type: ADME; conditions: 504 h, time 21 day
in vivo [10] = conditions: CD-1, mouse, iv, 1 mg/kg; remark: listed apart in the source
in vivo [11] = conditions: Sprague-Dawley, rat, po, 5 mg/kg; remark: listed apart in the source
in vivo [12] = conditions: Sprague-Dawley, rat, po, 5 mg/kg; remark: listed apart in the source
in vitro [13] = conditions: mouse, hepatocytes
in vivo [14] = conditions: Sprague-Dawley, rat, iv, 1 mg/kg; remark: listed apart in the source
in vivo [15] = conditions: CD-1, mouse, po, 5 mg/kg; remark: listed apart in the source
[16] = MRT (0 to t) in CD-1 mouse at 1 mg/kg, iv measured after 24 hrs; type: ADME, organism-based; conditions: in vivo
[17] = AUC (0 to t) in Sprague-Dawley rat at 5 mg/kg, po measured after 24 hrs; type: ADME, organism-based; conditions: in vivo
[18] = Cmax in CD-1 mouse at 10 mg/kg, po measured after 24 hrs; type: ADME, organism-based; conditions: in vivo
[19] = Tmax in CD-1 mouse at 10 mg/kg, po measured after 24 hrs; type: ADME, organism-based; conditions: in vivo
[20] = Oral bioavailability in CD-1 mouse at 10 mg/kg measured after 24 hrs; type: ADME, organism-based; conditions: in vivo
[21] = Tmax in Sprague-Dawley rat at 10 mg/kg, po measured after 24 hrs; type: ADME, organism-based; conditions: in vivo
[22] = Oral bioavailability in Sprague-Dawley rat at 10 mg/kg measured after 24 hrs; type: ADME, organism-based; conditions: in vivo
[23] = AUC (0 to t) in CD-1 mouse at 10 mg/kg, po measured after 24 hrs; type: ADME, organism-based; conditions: in vivo
[24] = Cmax in Sprague-Dawley rat at 10 mg/kg, po measured after 24 hrs; type: ADME, organism-based; conditions: in vivo
[25] = Oral bioavailability in CD-1 mouse at 30 mg/kg measured after 24 hrs; type: ADME, organism-based; conditions: in vivo
[26] = Tmax in CD-1 mouse at 30 mg/kg, po measured after 24 hrs; type: ADME, organism-based; conditions: in vivo
[27] = Tmax in Sprague-Dawley rat at 20 mg/kg, po measured after 24 hrs; type: ADME, organism-based; conditions: in vivo
[28] = Oral bioavailability in Sprague-Dawley rat at 20 mg/kg measured after 24 hrs; type: ADME, organism-based; conditions: in vivo
[29] = Cmax in Sprague-Dawley rat at 20 mg/kg, po measured after 24 hrs; type: ADME, organism-based; conditions: in vivo
[30] = AUC (0 to t) in CD-1 mouse at 30 mg/kg, po measured after 24 hrs; type: ADME, organism-based; conditions: in vivo
[31] = Cmax in CD-1 mouse at 30 mg/kg, po measured after 24 hrs; type: ADME, organism-based; conditions: in vivo

MRT last at 24 h [1] [min] | clearance at 24 h (in vivo [3]) [mL/min/kg] | Papp A→B at 2 h (in vitro [5]) [×10⁻⁶ cm/s] | Vd at 24 h (in vivo [8]) [L/kg] | Cp(f) [9] [nM] | clearance at 24 h (in vivo [10]) [mL/min/kg] | CLhep predicted (in vitro [13]) [mL/min/kg] | Vd at 24 h (in vivo [14]) [L/kg] | MRT last at 24 h [16] [min] | Compound | further results
33.6 | 37.6 | 11 | 2.3 | 39.3 | 85.7 | 79.4 | 1.4 | 23.4 | Cc1cc2c(C(N)=O)c(N)n(-c3c(C)ccc(O)c3C)c2nc1C [LUNRESERTIB] | AUC(0-t) at 24 h [2]: 539 ng·h/mL; Tmax at 24 h (in vivo [4]): 24 min; Cmax at 24 h (in vivo [6]): 511 ng/mL; bioavailability at 24 h (in vivo [7]): 78%; Tmax at 24 h (in vivo [11]): 15 min; Cmax at 24 h (in vivo [12]): 1360 ng/mL; bioavailability at 24 h (in vivo [15]): 55.8%; AUC(0-t) at 24 h [17]: 1720 ng·h/mL
24.6 | 46.8 | 1.48 | 0.99 |  | 149 | 85.4 | 1.2 | 6.6 | Cc1ccc(O)c(C)c1-n1c(N)c(C(=O)N2CCn3nccc3C2)c2nc(C)c(C)nc21 | Cmax [18]: 902 ng/mL; Tmax [19]: 15 min; bioavailability [20]: 29.3%; Tmax [21]: 15 min; bioavailability [22]: 50.9%; AUC(0-t) at 24 h [23]: 330 ng·h/mL; Cmax [24]: 1410 ng/mL
28.2 | 49.1 | 1 | 1.3 | 60.7 | 122 | 83.5 | 1.4 | 10.2 | Cc1ccc(O)c(C)c1-n1c(N)c(C(=O)N2CCn3nccc3C2)c2nc(C3CC3)c(C)nc21 | bioavailability [25]: 55.8%; Tmax [26]: 15 min; Tmax [27]: 40.2 min; bioavailability [28]: 55.9%; Cmax [29]: 1780 ng/mL; AUC(0-t) at 24 h [30]: 2310 ng·h/mL; Cmax [31]: 1800 ng/mL
